System: ABC-DLBCL patients
Assay: Open label multicenter non-randomized clinical trial of the present compound as monotherapy in recurrent or refractory ABC-DLBCL patients
Format: in vivo, human
Experimental: A clinical trial was conducted by an open label multicenter non-randomized test by administering 6-amino-9-[(3R)-1-(2-butynoyl)-3-pyrrolidinyl]-7-(4-phenoxyphenyl)-7,9-dihydro-8H-purin-8-one hydrochloride, the present compound, as monotherapy to an ABC-DLBCL patient.
Among the patients who had already received treatment, who had been diagnosed as a non-Hodgkin's lymphoma, for whom higher preference order of treatment was not present, and who fell under the following definition of “recurrent” or “refractory”, patients satisfying the following conditions entered.
Recurrent: Patients who attained Complete Response (CR), Complete Response, unconfirmed (CRu), CR with incomplete marrow recovery (CRi) or Partial Response (PR) for 6 months or longer after the last treatment of non-Hodgkin's lymphoma, and for whom pathological advance was recognized.
Refractory: Patients who could not attain CR, CRu, CRi or PR after the last treatment of non-Hodgkin's lymphoma, or patients who acquired CR, CRu, CRi or PR for shorter than 6 months after the last treatment, but for whom pathological advance was recognized.
Condition: Two or more NHL treatments have already failed.
A fixed dose of the present compound was orally administered once per day, with one cycle being treatment for 28 days in 3 patients per one cohort. The schedule was such that this cycle was conducted until 6 cycles, and could be maximally extended to 24 cycles. In the first cohort, all the patients were administered at a fixed dose of 20 mg of the present compound.
Regarding the NHL patients who entered under the above conditions, an immunohistochemical method or gene expression profiling was conducted according to a conventional method using a diagnostic sample obtained by tissue biopsy excising a part of affected lymph node, so that patients affected with ABC-DLBCL were extracted.
Primary evaluation items were safety, tolerance and dose limiting toxicities (DLTs). These items were evaluated using manifestation of adverse event, physical examination, clinical test, vital sign and cardiograph. In addition, the intensity of the adverse event was determined using Common Terminology Criteria for Adverse Events (CTCAE) version 4.0 of the National Cancer Institute.
Secondary evaluation items were Overall Response Rate (ORR), Complete Response Rate (CR, CRu, CRi), Partial Response Rate (PR), Progression Free Survival (PFS), Overall Survival (OS), Duration of Response, Event Free Survival (EFS), Pharmacokinetics (PK) and Pharmacodynamics (PD). In addition, the evaluations of CR, CRu and PR were conducted by referring to evaluation criteria described in Journal of Clinical Oncology, Vol. 17, No. 4, pages 1244-1253, 1999.
Biopsy samples of tumor were obtained from ABC-DLBCL patients before administration of the present compound. From the samples, genomic DNA was extracted by conventional method, and the presence or absence of CD79B mutation was confirmed in accordance with the method described in Nature, No. 463, pages 88-92, 2010. As a result, it was seen that, among the 8 ABC-DLBCL patients, all of 7 evaluable patients had CD79B wild-type gene background.

[1] = in 8 cases, cohort 4 (160 mg) or cohort 5 (520 mg)

CC#CC(=O)N1CC[C@@H](n2c(=O)n(-c3ccc(Oc4ccccc4)cc3)c3c(N)ncnc32)C1.Cl [present compound, 6-amino-9-[(3R)-1-(2-butynoyl)-3-pyrrolidinyl]-7-(4-phenoxyphenyl)-7,9-dihydro-8H-purin-8-one hydrochloride]
Overall Response Rate (ORR) in ABC-DLBCL patients having CD79B wild-type (6 cases in 7 cases): 85%
bleeding-associated event such as intracranial bleeding as adverse event (13 ABC-DLBCL patients): not seen at all
tolerance (13 ABC-DLBCL patients administered the present compound): high tolerance
Overall Response Rate (ORR) (ABC-DLBCL patients, 8 cases, cohort 4 (160 mg) or cohort 5 (520 mg), oral once per day): 75%
adverse events classified into grade 3 (drug reaction and lymphopenia) (among the 5 cases with adverse event of 13 cases, CTCAE version 4.0): 2 cases
PR cases [1]: 6 cases
disease progression cases [1]: 2 cases
median value of decrease in lymph node (in the 6 PR cases, cohort 4 (160 mg) or cohort 5 (520 mg)): 81.5%
decrease in lymph node swelling recognized (of 8 ABC-DLBCL patients, first administration cycle, oral once per day): 6 patients
adverse event associated with the present compound (of 13 cases): 5 cases

— patent US10426778B2, “Prophylactic agent and/or therapeutic agent for diffuse large B-cell lymphoma” (ONO PHARMACEUTICAL CO., LTD., priority 2014, dated 2019)
